Reference: paper PMC9691367, “The PROTAC selectively degrading Bcl-xL represents a novel Hedgehog pathway inhibitor with capacity of combating resistance to Smoothened inhibitors while sparing bone growth” (Theranostics, 2022)
“And” between values parts separate entries of the source, which are not always exact repeats. Equal entries are not always repeated. Where two headings read alike, the source gives them in different places.

Key:
[1] = molecular target: T1, Bcl-xL (Mus musculus, UniProt Q64373); test: Western blot of Bcl-xL degradation in NIH-3T3 cells; format: cell-based
T1 construct: endogenous in cells; host or cells: NIH-3T3
Protocol: Cells were lysed in cell lysis buffer (50 mM Tris pH 8.0, 150 mM NaCl, 10% glycerol, 1 mM EDTA, 50 mM NaF, and 0.1% NP-40) supplemented with protease and phosphatase inhibitors. Total protein extracts of tissues were generated in radioimmunoprecipitation (RIPA) assay lysis buffer containing complete protease and phosphatase inhibitor cocktail. Protein content was quantified using the Pierce BCA Protein Assay Kit (#23225, Thermo Fisher Scientific). The proteins were separated by SDS-PAGE, electrophoretically transferred to polyvinylidene difluoride (PVDF) blotting membranes (#LC2002, Thermo Fisher Scientific), and subjected to routine immunoblot analysis with primary antibodies as follows: anti-Bcl-2 (#15071), anti-Mcl-1 (#94296), anti-VHL (#68547), anti-CRBN (#71810), and anti-Sufu (#2522) were obtained from Cell Signaling Technology (Danvers, Massachusetts, USA); anti-Bcl-xL (#ab32370), anti-Gli1 (#ab134906), and anti-Smoothened (#ab236465) were obtained from Abcam (Cambridge, CB2 0AX, UK); anti-GAPDH (#60004-1-Ig) and anti-β-tubulin (#10094-1-AP) were purchased from Proteintech Group, Inc. (Rosemont, IL 60018, USA). The results were quantified by densitometry using ImageJ software (NIH).

[2] = test system: NF-κB signaling pathway; test: NF-κB luciferase reporter assay in 293T cells; format: cell-based; settings: TNF-α 10 ng/mL, 6 h, SIAIS361034 10 μM, BAY 11-7082 20 μM
Protocol: Cells seeded in 96-well plates were treated with various treatments as indicated. The luciferase activity in the cell lysates was measured using Dual-Luciferase Reporter Assay System (Promega, Madison, WI, USA) according to the manufacturer's instructions in a luminometer (Molecular Devices, Sunnyvale, CA). The firefly luciferase values were normalized to Renilla values. […]
Data represent mean ± SD (n = 3). (B) NF-κB luciferase analysis of the effect of SIAIS361034 on NF-κB signaling pathway in 293T cells.The 293T cells were transfected with NF-κB luciferase reporter and Renilla-TK plasmids and […]
μM) for 6 h. Data represent mean ± SD (n = 3). […]
Data represent mean ± SD (n = 3).
(1 picture or pasted object on this page, not shown here)

[3] = Pharmacokinetic study in male ICR mice; format: in vivo, mouse; settings: for MRT last: read-out: MRT(0-t); for MRT inf: read-out: MRT(0-∞)
Protocol: Standard pharmacokinetic (PK) studies were conducted using male ICR Mice. A single 2 mg/kg intravenous (i.v.) injection, 10 mg/kg intraperitoneal (i.p.) injection or 10 mg/kg oral (p.o.) administration of SIAIS361034 was evaluated. Plasma concentrations of SIAIS361034 at each of the 7 time points (0.25 h, 0.5 h, 1 h, 2 h, 4 h, 8 h, and 24 h post dosing) are the average values from 3 animals.

[4] = male ICR mice, 2 mg/kg IV, individual animals (Mouse 1-3), 2 mg/kg
[5] = male ICR mice, 10 mg/kg IP, individual animals (Mouse 1-3), 10 mg/kg
[6] = male ICR mice, 10 mg/kg PO, individual animals (Mouse 1, 3; Mouse 2 NA), 10 mg/kg
[7] = male ICR mice, 10 mg/kg PO, individual animals (Mouse 1-3), 10 mg/kg
[8] = male, ICR, mouse, plasma, ip, 10 mg/kg, male ICR mice, 10 mg/kg IP, individual animals (Mouse 1-3)
[9] = male, ICR, mouse, plasma, ip, 10 mg/kg, male ICR mice, 10 mg/kg IP, mean of 3 animals
[10] = male, ICR, mouse, plasma, iv, 2 mg/kg, male ICR mice, 2 mg/kg IV, individual animals (Mouse 1-3)
[11] = male, ICR, mouse, plasma, iv, 2 mg/kg, male ICR mice, 2 mg/kg IV, mean of 3 animals
[12] = male, ICR, mouse, plasma, po, 10 mg/kg, male ICR mice, 10 mg/kg PO, mean

T1 sequence (Q64373 whole entry): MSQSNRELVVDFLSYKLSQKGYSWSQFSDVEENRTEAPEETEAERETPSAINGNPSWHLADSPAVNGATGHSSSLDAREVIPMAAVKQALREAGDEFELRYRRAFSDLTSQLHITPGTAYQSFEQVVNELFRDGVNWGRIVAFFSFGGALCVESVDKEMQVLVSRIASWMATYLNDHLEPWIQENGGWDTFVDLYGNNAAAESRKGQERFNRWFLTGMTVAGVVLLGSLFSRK

Question: What does the source list for CC1(C)CCC(c2ccc(Cl)cc2)=C(CN2CCN(c3ccc(C(=O)NS(=O)(=O)c4ccc(NCCCN5CCN(CCCC#Cc6cccc7c6CN(C6CCC(=O)NC6=O)C7=O)CC5)c(S(=O)(=O)C(F)(F)F)c4)cc3)CC2)C1 (centres unmarked) [SIAIS361034]?
Answer: duration of Bcl-xL degradation ([1]; 1 µM for 24 h followed by drug withdrawal): around 48 h; Bcl-xL degradation ([1]; 1 µM, western blot): significantly degraded Bcl-xL; Dmax ([1]; NIH3T3, 24 h, western blot, read-out: maximum degradation (Dmax) of Bcl-xL): 88.1%; effect on Bcl-xL mRNA levels ([1]; data not shown): almost no effect; NF-κB luciferase activity activated by TNF-α [2]: no inhibitory activity; AUC(0-t) [3, 4]: 6203 ng·h/mL and 4263 ng·h/mL; AUC(0-∞) [3, 4]: 6222 ng·h/mL and 4305 ng·h/mL; C0 [3, 4]: 34215 ng/mL and 79513 ng/mL and 43287 ng/mL; Cl [3, 4]: 5.35 mL/min/kg and 7.75 mL/min/kg; Cmax [3, 4]: 17900 ng/mL and 13200 ng/mL; MRT(0-t) [3, 4]: 0.30 h and 0.31 h; MRT(0-∞) [3, 4]: 0.40 h and 0.42 h; T1/2 [3, 4]: 1.79 h and 6.38 h and 2.29 h; Vss [3, 4]: 0.13 L/kg and 0.193 L/kg; Vz [3, 4]: 2.957 L/kg and 1.535 L/kg; AUC(0-t) [3, 5]: 20871 ng·h/mL and 15558 ng·h/mL; AUC(0-∞) [3, 5]: 22061 ng·h/mL and 16141 ng·h/mL; Cmax [3, 5]: 9700 ng/mL and 4920 ng/mL; F [3, 5]: 71.4% and 96.4% and 70.5%; MRT(0-t) [3, 5]: 5.16 h and 4.24 h; MRT(0-∞) [3, 5]: 6.68 h and 5.22 h; T1/2 [3, 5]: 5.23 h and 5.94 h; Tmax ([3]; male ICR mice, 10 mg/kg IP, individual animals (Mouse 1-3; 0.50 twice), 10 mg/kg): 0.50 h; AUC(0-∞) [3, 6]: 305 ng·h/mL and 111 ng·h/mL; MRT(0-∞) [3, 6]: 10.30 h and 2.82 h; T1/2 [3, 6]: 8.98 h and 2.39 h; F ([3]; male ICR mice, 10 mg/kg PO, individual animals (Mouse 1, 3; Mouse 2 and mean NA), 10 mg/kg): 1.33% and 0.484%; AUC(0-t) [3, 7]: 265 ng·h/mL and 213 ng·h/mL and 101 ng·h/mL; Cmax [3, 7]: 54.9 ng/mL and 49.1 ng/mL; MRT(0-t) [3, 7]: 6.29 h and 2.88 h and 2.01 h; Tmax ([3]; male ICR mice, 10 mg/kg PO, individual animals (Mouse 1-3; 1.00 twice), 10 mg/kg): 2.00 h; AUC(0-inf) [3, 8]: 16300 ng·h/mL; half-life [3, 8]: 6.44 h; AUC(0-t) ([3]; male, ICR, mouse, plasma, ip, 10 mg/kg, male ICR mice, 10 mg/kg IP, individual animals (Mouse 1-3), read-out: AUC(0-t)): 15500 ng·h/mL; Cmax ([3]; male, ICR, mouse, plasma, ip, 10 mg/kg, male ICR mice, 10 mg/kg IP, individual animals (Mouse 1-3), read-out: Cmax): 7630 ng/mL; MRT last [3, 8]: 3.84 h; MRT inf [3, 8]: 5.25 h; Tmax ([3]; male, ICR, mouse, plasma, ip, 10 mg/kg, male ICR mice, 10 mg/kg IP, individual animals (Mouse 1-3; 0.50 twice), read-out: Tmax): 1 h; AUC(0-inf) [3, 9]: 18200 ng·h/mL; bioavailability [3, 9]: 79.4%; half-life [3, 9]: 5.87 h; AUC(0-t) ([3]; male, ICR, mouse, plasma, ip, 10 mg/kg, male ICR mice, 10 mg/kg IP, mean of 3 animals, read-out: AUC(0-t)): 17300 ng·h/mL; Cmax ([3]; male, ICR, mouse, plasma, ip, 10 mg/kg, male ICR mice, 10 mg/kg IP, mean of 3 animals, read-out: Cmax): 7420 ng/mL; MRT last [3, 9]: 4.41 h; MRT inf [3, 9]: 5.72 h; Tmax ([3]; male, ICR, mouse, plasma, ip, 10 mg/kg, male ICR mice, 10 mg/kg IP, mean of 3 animals, read-out: Tmax): 0.67 h; AUC(0-inf) [3, 10]: 3200 ng·h/mL; clearance [3, 10]: 10.4 mL/min/kg; AUC(0-t) ([3]; male, ICR, mouse, plasma, iv, 2 mg/kg, male ICR mice, 2 mg/kg IV, individual animals (Mouse 1-3), read-out: AUC(0-t)): 3190 ng·h/mL; Cmax ([3]; male, ICR, mouse, plasma, iv, 2 mg/kg, male ICR mice, 2 mg/kg IV, individual animals (Mouse 1-3), read-out: Cmax): 10300 ng/mL; MRT last [3, 10]: 0.22 h; MRT inf [3, 10]: 0.26 h; Vd ([3]; male, ICR, mouse, plasma, iv, 2 mg/kg, male ICR mice, 2 mg/kg IV, individual animals (Mouse 1-3), read-out: Vss): 0.163 L/kg; Vd ([3]; male, ICR, mouse, plasma, iv, 2 mg/kg, male ICR mice, 2 mg/kg IV, individual animals (Mouse 1-3), read-out: Vz): 1.61 L/kg; Tmax ([3]; male, ICR, mouse, plasma, iv, 2 mg/kg, male ICR mice, 2 mg/kg IV, individual animals (Mouse 1-3, same value), read-out: Tmax): 0.083 h; AUC(0-inf) [3, 11]: 4580 ng·h/mL; clearance [3, 11]: 7.83 mL/min/kg; half-life [3, 11]: 3.49 h; AUC(0-t) ([3]; male, ICR, mouse, plasma, iv, 2 mg/kg, male ICR mice, 2 mg/kg IV, mean of 3 animals, read-out: AUC(0-t)): 4550 ng·h/mL; C0 ([3]; male, ICR, mouse, plasma, iv, 2 mg/kg, male ICR mice, 2 mg/kg IV, mean of 3 animals, read-out: C0): 52300 ng/mL; Cmax ([3]; male, ICR, mouse, plasma, iv, 2 mg/kg, male ICR mice, 2 mg/kg IV, mean of 3 animals, read-out: Cmax): 13800 ng/mL; MRT last [3, 11]: 0.28 h; MRT inf [3, 11]: 0.36 h; Tmax ([3]; male, ICR, mouse, plasma, iv, 2 mg/kg, male ICR mice, 2 mg/kg IV, mean of 3 animals, read-out: Tmax): 0.083 h; Vd ([3]; male, ICR, mouse, plasma, iv, 2 mg/kg, male ICR mice, 2 mg/kg IV, mean of 3 animals, read-out: Vss): 0.162 L/kg; Vd ([3]; male, ICR, mouse, plasma, iv, 2 mg/kg, male ICR mice, 2 mg/kg IV, mean of 3 animals, read-out: Vz): 2.03 L/kg; Cmax ([3]; male, ICR, mouse, plasma, po, 10 mg/kg, male ICR mice, 10 mg/kg PO, individual animals (Mouse 1-3), read-out: Cmax): 50.9 ng/mL; Tmax ([3]; male, ICR, mouse, plasma, po, 10 mg/kg, male ICR mice, 10 mg/kg PO, individual animals (Mouse 1-3; 1.00 twice), read-out: Tmax): 1 h; AUC(0-inf) [3, 12]: 208 ng·h/mL; half-life [3, 12]: 5.68 h; AUC(0-t) ([3]; male, ICR, mouse, plasma, po, 10 mg/kg, male ICR mice, 10 mg/kg PO, mean of 3 animals, read-out: AUC(0-t)): 193 ng·h/mL; Cmax ([3]; male, ICR, mouse, plasma, po, 10 mg/kg, male ICR mice, 10 mg/kg PO, mean of 3 animals, read-out: Cmax): 51.6 ng/mL; MRT last ([3]; male, ICR, mouse, plasma, po, 10 mg/kg, male ICR mice, 10 mg/kg PO, mean of 3 animals): 3.73 h; Tmax ([3]; male, ICR, mouse, plasma, po, 10 mg/kg, male ICR mice, 10 mg/kg PO, mean of 3 animals, read-out: Tmax): 1.33 h; MRT inf [3, 12]: 6.56 h; pharmacokinetic property, oral ([3]; mice, 10 mg/kg p.o.): poor pharmacokinetic property; plasma exposure ([3]; mice, single 10 mg/kg i.p. or 2 mg/kg i.v., over 24 h): good plasma exposure
